# Measured values published in the supplement of paper PMC10307832.
# What was measured:
# Experiment in all cases: relative viability (nuclei count vs DMSO), 5 days (fraction); higher = more cells survive
# [1] = system: 201T
# Method in brief: (§1)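 Relative viability was taken as the ratio of nuclei in treated wells to nuclei in vehicle wells. Lung cancer cell lines in 1536-well plates received compounds by pin tool one day after seeding, either one drug alone or a fixed anchor-drug dose plus five library-drug doses (not always all listed) in √10 steps. Nuclei were counted on 4× images after 5 days of treatment, and values are medians of duplicate plates.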
# [2] = system: COR-L23
# Method in brief: as §1
# [3] = system: H3255
# Method in brief: as §1
# [4] = system: HARA
# Method in brief: as §1
# [5] = system: HCC-366
# Method in brief: as §1
# [6] = system: HCC-78
# Method in brief: as §1
# [7] = system: LU99A
# Method in brief: as §1
# [8] = system: NCI-H1650
# Method in brief: as §1
# [9] = system: NCI-H1651
# Method in brief: as §1
# [10] = system: NCI-H1755
# Method in brief: as §1
# [11] = system: NCI-H1793
# Method in brief: as §1
# [12] = system: NCI-H2085
# Method in brief: as §1
# [13] = system: NCI-H2087
# Method in brief: as §1
# [14] = system: NCI-H23
# Method in brief: as §1
# [15] = system: NCI-H3122
# Method in brief: as §1
# [16] = system: NCI-H322M
# Method in brief: as §1
# [17] = system: NCI-H358
# Method in brief: as §1
# [18] = system: NCI-H460
# Method in brief: as §1
# [19] = system: NCI-H522
# Method in brief: as §1
# [20] = system: NCI-H596
# Method in brief: as §1
# [21] = system: NCI-H650
# Method in brief: as §1
# [22] = system: PC-3 [JPC-3]
# Method in brief: as §1
# [23] = system: SK-LU-1
# Method in brief: as §1
smiles,measurement,setting,value
CN1CCN(CCOc2cc(OC3CCOCC3)c3c(Nc4c(Cl)ccc5c4OCO5)ncnc3c2)CC1 [Saracatinib] + CC(=O)Nc1cccc(-n2c(=O)n(C3CC3)c(=O)c3c(Nc4ccc(I)cc4F)n(C)c(=O)c(C)c32)c1 [Trametinib] (partner 0.02 µM),relative viability,[1]; first compound 0.02 µM,0.726
same,relative viability,[1]; first compound 0.2 µM,0.685
same,relative viability,[1]; first compound 0.6325 µM,0.65
same,relative viability,[1]; first compound 2 µM,0.615
same,relative viability,[2]; first compound 0.02 µM,0.58
same,relative viability,[2]; first compound 0.2 µM,0.53
same,relative viability,[2]; first compound 0.6325 µM,0.574
same,relative viability,[2]; first compound 2 µM,0.559
same,relative viability,[3]; first compound 0.02 µM,0.636
same,relative viability,[3]; first compound 0.2 µM,0.665
same,relative viability,[3]; first compound 0.6325 µM,0.663
same,relative viability,[3]; first compound 2 µM,0.27
same,relative viability,[4]; first compound 0.02 µM,0.688
same,relative viability,[4]; first compound 0.2 µM,0.624
same,relative viability,[4]; first compound 0.6325 µM,0.836
same,relative viability,[4]; first compound 2 µM,0.344
same,relative viability,[5]; first compound 0.02 µM,0.337
same,relative viability,[5]; first compound 0.2 µM,0.128
same,relative viability,[5]; first compound 0.6325 µM,0.216
same,relative viability,[5]; first compound 2 µM,0.202
same,relative viability,[6]; first compound 0.02 µM,0.569
same,relative viability,[6]; first compound 0.6325 µM,0.869
same,relative viability,[6]; first compound 2 µM,0.523
same,relative viability,[7]; first compound 0.02 µM,0.532
same,relative viability,[7]; first compound 0.2 µM,0.473
same,relative viability,[7]; first compound 0.6325 µM,0.565
same,relative viability,[7]; first compound 2 µM,0.459
same,relative viability,[8]; first compound 0.02 µM,0.528
same,relative viability,[8]; first compound 0.2 µM,0.438
same,relative viability,[8]; first compound 0.6325 µM,0.505
same,relative viability,[8]; first compound 2 µM,0.291
same,relative viability,[9]; first compound 0.02 µM,0.837
same,relative viability,[9]; first compound 0.2 µM,0.593
same,relative viability,[9]; first compound 0.6325 µM,0.907
same,relative viability,[9]; first compound 2 µM,0.877
same,relative viability,[10]; first compound 0.02 µM,0.724
same,relative viability,[10]; first compound 0.2 µM,0.714
same,relative viability,[10]; first compound 0.6325 µM,0.75
same,relative viability,[10]; first compound 2 µM,0.694
same,relative viability,[11]; first compound 0.02 µM,0.439
same,relative viability,[11]; first compound 0.2 µM,0.395
same,relative viability,[11]; first compound 0.6325 µM,0.513
same,relative viability,[11]; first compound 2 µM,0.475
same,relative viability,[12]; first compound 0.02 µM,0.482
same,relative viability,[12]; first compound 0.2 µM,0.541
same,relative viability,[12]; first compound 0.6325 µM,0.497
same,relative viability,[12]; first compound 2 µM,0.404
same,relative viability,[13]; first compound 0.02 µM,0.24
same,relative viability,[13]; first compound 0.2 µM,0.142
same,relative viability,[13]; first compound 0.6325 µM,0.23
same,relative viability,[13]; first compound 2 µM,0.194
same,relative viability,[14]; first compound 0.02 µM,0.344
same,relative viability,[14]; first compound 0.6325 µM,0.351
same,relative viability,[14]; first compound 2 µM,0.218
same,relative viability,[15]; first compound 0.02 µM,0.212
same,relative viability,[15]; first compound 0.2 µM,0.163
same,relative viability,[15]; first compound 0.6325 µM,0.154
same,relative viability,[15]; first compound 2 µM,0.155
same,relative viability,[16]; first compound 0.02 µM,0.529
same,relative viability,[16]; first compound 0.2 µM,0.449
same,relative viability,[16]; first compound 0.6325 µM,0.582
same,relative viability,[16]; first compound 2 µM,0.357
same,relative viability,[17]; first compound 0.02 µM,0.156
same,relative viability,[17]; first compound 0.2 µM,0.131
same,relative viability,[17]; first compound 0.6325 µM,0.105
same,relative viability,[17]; first compound 2 µM,0.0979
same,relative viability,[18]; first compound 0.02 µM,0.215
same,relative viability,[18]; first compound 0.2 µM,0.139
same,relative viability,[18]; first compound 0.6325 µM,0.129
same,relative viability,[18]; first compound 2 µM,0.056
same,relative viability,[19]; first compound 0.02 µM,0.708
same,relative viability,[19]; first compound 0.2 µM,0.745
same,relative viability,[19]; first compound 0.6325 µM,0.788
same,relative viability,[19]; first compound 2 µM,0.536
same,relative viability,[20]; first compound 0.02 µM,0.636
same,relative viability,[20]; first compound 0.2 µM,0.722
same,relative viability,[20]; first compound 0.6325 µM,0.648
same,relative viability,[20]; first compound 2 µM,0.584
same,relative viability,[21]; first compound 0.02 µM,0.993
same,relative viability,[21]; first compound 0.2 µM,0.877
same,relative viability,[21]; first compound 0.6325 µM,1.03
same,relative viability,[21]; first compound 2 µM,0.92
same,relative viability,[22]; first compound 0.02 µM,0.758
same,relative viability,[22]; first compound 0.2 µM,0.587
same,relative viability,[22]; first compound 0.6325 µM,0.534
same,relative viability,[22]; first compound 2 µM,0.494
same,relative viability,[23]; first compound 0.02 µM,0.51
same,relative viability,[23]; first compound 0.2 µM,0.364
same,relative viability,[23]; first compound 0.6325 µM,0.375
same,relative viability,[23]; first compound 2 µM,0.301
CN1CCN(CCOc2cc(OC3CCOCC3)c3c(Nc4c(Cl)ccc5c4OCO5)ncnc3c2)CC1 [Saracatinib] + COc1cccc2cc(-c3nc([C@H]4CC[C@H](C(=O)O)CC4)n4ncnc(N)c34)[nH]c12 [OSI-027] (partner 0.5 µM),relative viability,[1]; first compound 0.02 µM,0.725
same,relative viability,[1]; first compound 0.2 µM,0.53
same,relative viability,[1]; first compound 0.6325 µM,0.752
same,relative viability,[1]; first compound 2 µM,0.445
same,relative viability,[2]; first compound 0.02 µM,0.698
same,relative viability,[2]; first compound 0.2 µM,0.684
same,relative viability,[2]; first compound 0.6325 µM,0.746
same,relative viability,[2]; first compound 2 µM,0.641
same,relative viability,[3]; first compound 0.02 µM,0.587
same,relative viability,[3]; first compound 0.2 µM,0.589
same,relative viability,[3]; first compound 0.6325 µM,0.542
same,relative viability,[3]; first compound 2 µM,0.284
same,relative viability,[4]; first compound 0.02 µM,0.544
same,relative viability,[4]; first compound 0.2 µM,0.263
same,relative viability,[4]; first compound 0.6325 µM,0.483
same,relative viability,[4]; first compound 2 µM,0.205
same,relative viability,[5]; first compound 0.02 µM,1.02
same,relative viability,[5]; first compound 0.6325 µM,0.757
same,relative viability,[5]; first compound 2 µM,0.385
same,relative viability,[6]; first compound 0.02 µM,0.426
same,relative viability,[6]; first compound 0.6325 µM,0.379
same,relative viability,[6]; first compound 2 µM,0.317
same,relative viability,[7]; first compound 0.02 µM,0.317
same,relative viability,[7]; first compound 0.2 µM,0.283
same,relative viability,[7]; first compound 0.6325 µM,0.303
same,relative viability,[7]; first compound 2 µM,0.277
same,relative viability,[8]; first compound 0.02 µM,0.611
same,relative viability,[8]; first compound 0.2 µM,0.396
same,relative viability,[8]; first compound 0.6325 µM,0.524
same,relative viability,[8]; first compound 2 µM,0.254
same,relative viability,[9]; first compound 0.02 µM,0.694
same,relative viability,[9]; first compound 0.2 µM,0.657
same,relative viability,[9]; first compound 0.6325 µM,0.81
same,relative viability,[9]; first compound 2 µM,0.485
same,relative viability,[10]; first compound 0.02 µM,0.691
same,relative viability,[10]; first compound 0.2 µM,0.643
same,relative viability,[10]; first compound 0.6325 µM,0.706
same,relative viability,[10]; first compound 2 µM,0.634
same,relative viability,[11]; first compound 0.02 µM,0.303
same,relative viability,[11]; first compound 0.6325 µM,0.312
same,relative viability,[11]; first compound 2 µM,0.253
same,relative viability,[12]; first compound 0.02 µM,0.839
same,relative viability,[12]; first compound 0.2 µM,0.723
same,relative viability,[12]; first compound 0.6325 µM,0.772
same,relative viability,[12]; first compound 2 µM,0.78
same,relative viability,[13]; first compound 0.02 µM,0.609
same,relative viability,[13]; first compound 0.2 µM,0.393
same,relative viability,[13]; first compound 0.6325 µM,0.953
same,relative viability,[13]; first compound 2 µM,0.742
same,relative viability,[14]; first compound 0.02 µM,0.649
same,relative viability,[14]; first compound 0.2 µM,0.425
same,relative viability,[14]; first compound 0.6325 µM,0.659
same,relative viability,[14]; first compound 2 µM,0.503
same,relative viability,[15]; first compound 0.02 µM,0.957
same,relative viability,[15]; first compound 0.2 µM,0.357
same,relative viability,[15]; first compound 0.6325 µM,0.968
same,relative viability,[15]; first compound 2 µM,0.718
same,relative viability,[16]; first compound 0.02 µM,0.56
same,relative viability,[16]; first compound 0.2 µM,0.499
same,relative viability,[16]; first compound 0.6325 µM,0.449
same,relative viability,[16]; first compound 2 µM,0.275
same,relative viability,[17]; first compound 0.02 µM,0.707
same,relative viability,[17]; first compound 0.2 µM,0.391
same,relative viability,[17]; first compound 0.6325 µM,0.466
same,relative viability,[17]; first compound 2 µM,0.289
same,relative viability,[18]; first compound 0.02 µM,0.656
same,relative viability,[18]; first compound 0.2 µM,0.394
same,relative viability,[18]; first compound 0.6325 µM,0.623
same,relative viability,[18]; first compound 2 µM,0.376
same,relative viability,[19]; first compound 0.02 µM,0.703
same,relative viability,[19]; first compound 0.6325 µM,0.692
same,relative viability,[19]; first compound 2 µM,0.683
same,relative viability,[20]; first compound 0.02 µM,0.721
same,relative viability,[20]; first compound 0.2 µM,0.429
same,relative viability,[20]; first compound 0.6325 µM,0.623
same,relative viability,[20]; first compound 2 µM,0.403
same,relative viability,[21]; first compound 0.02 µM,0.602
same,relative viability,[21]; first compound 0.2 µM,0.504
same,relative viability,[21]; first compound 0.6325 µM,0.524
same,relative viability,[21]; first compound 2 µM,0.493
same,relative viability,[22]; first compound 0.02 µM,0.793
same,relative viability,[22]; first compound 0.2 µM,0.718
same,relative viability,[22]; first compound 0.6325 µM,0.61
same,relative viability,[22]; first compound 2 µM,0.436
same,relative viability,[23]; first compound 0.02 µM,0.33
same,relative viability,[23]; first compound 0.2 µM,0.28
same,relative viability,[23]; first compound 0.6325 µM,0.245
same,relative viability,[23]; first compound 2 µM,0.172
